Data: the NIST ThermoML archive (doi:10.1016/j.jct.2004.03.005)
Numbers after ± are expanded uncertainties.

How the values were obtained:
[1] = for Triple point temperature: Crystal 2, DTA; for vapor or sublimation pressure: Crystal, Calculated from knudsen effusion weight loss
[2] = Molar enthalpy of transition or fusion; details: Crystal 2; DSC
[3] = molar heat capacity at constant pressure; details: 101.33 kPa, Small sample (50 mg) DSC

In the case of `CC(C)c1nc2ccccc2[nH]1` [1H-benzimidazole, 2-(1-methylethyl)-], the Triple point temperature [1] is reported as 410.4 ± 0.4 K, the “Molar enthalpy of transition or fusion” value [2] is reported as 0.239 ± 0.0478 kcal/mol and the “molar heat capacity at constant pressure” value ([3]; 268.15 K, Crystal 2) is reported as 197 ± 3.9 J/K/mol. For the same compound, the “molar heat capacity at constant pressure” value ([3]; 270.15 K, Crystal 2) was 199 ± 4 J/K/mol, the “molar heat capacity at constant pressure” value ([3]; 275.15 K, Crystal 2) was 202.8 ± 4.1 J/K/mol and the “molar heat capacity at constant pressure” value ([3]; 280.15 K, Crystal 2) was 206.9 ± 4.1 J/K/mol. The “molar heat capacity at constant pressure” value ([3]; 285.15 K, Crystal 2) was 210.8 ± 4.2 J/K/mol, the “molar heat capacity at constant pressure” value ([3]; 290.15 K, Crystal 2) was 214.4 ± 4.3 J/K/mol and the “molar heat capacity at constant pressure” value ([3]; 295.15 K, Crystal 2) was 218.7 ± 4.4 J/K/mol. The “molar heat capacity at constant pressure” value ([3]; 298.15 K, Crystal 2) was 220.6 ± 4.4 J/K/mol, the “molar heat capacity at constant pressure” value ([3]; 300.15 K, Crystal 2) was 221.7 ± 4.4 J/K/mol and the “molar heat capacity at constant pressure” value ([3]; 305.15 K, Crystal 2) was 224.5 ± 4.5 J/K/mol. The “molar heat capacity at constant pressure” value ([3]; 310.15 K, Crystal 2) was 228 ± 4.6 J/K/mol, the “molar heat capacity at constant pressure” value ([3]; 315.15 K, Crystal 2) was 230.9 ± 4.6 J/K/mol and the “molar heat capacity at constant pressure” value ([3]; 320.15 K, Crystal 2) was 234.6 ± 4.7 J/K/mol. The “molar heat capacity at constant pressure” value ([3]; 325.15 K, Crystal 2) was 238 ± 4.8 J/K/mol, the “molar heat capacity at constant pressure” value ([3]; 330.15 K, Crystal 2) was 240.7 ± 4.8 J/K/mol and the “molar heat capacity at constant pressure” value ([3]; 335.15 K, Crystal 2) was 245.2 ± 4.9 J/K/mol. For the same compound, the “molar heat capacity at constant pressure” value ([3]; 340.15 K, Crystal 2) was 248.9 ± 5 J/K/mol, the “molar heat capacity at constant pressure” value ([3]; 345.15 K, Crystal 2) was 252.7 ± 5 J/K/mol and the “molar heat capacity at constant pressure” value ([3]; 350.15 K, Crystal 2) was 256 ± 5.1 J/K/mol. For the same compound, the “molar heat capacity at constant pressure” value ([3]; 355.15 K, Crystal 2) was 260 ± 5.2 J/K/mol, the “molar heat capacity at constant pressure” value ([3]; 360.15 K, Crystal 2) was 264 ± 5.3 J/K/mol and the “molar heat capacity at constant pressure” value ([3]; 365.15 K, Crystal 2) was 267.4 ± 5.3 J/K/mol. For the same compound, the “molar heat capacity at constant pressure” value ([3]; 370.15 K, Crystal 2) was 272 ± 5.4 J/K/mol, the “molar heat capacity at constant pressure” value ([3]; 375.15 K, Crystal 2) was 276.3 ± 5.5 J/K/mol and the “molar heat capacity at constant pressure” value ([3]; 380.15 K, Crystal 2) was 280.1 ± 5.6 J/K/mol. For the same compound, the “molar heat capacity at constant pressure” value ([3]; 385.15 K, Crystal 2) was 284.6 ± 5.7 J/K/mol, the “molar heat capacity at constant pressure” value ([3]; 425.15 K, Crystal 1) was 285.7 ± 5.7 J/K/mol and the “molar heat capacity at constant pressure” value ([3]; 430.15 K, Crystal 1) was 288.4 ± 5.8 J/K/mol. For the same compound, the “molar heat capacity at constant pressure” value ([3]; 435.15 K, Crystal 1) was 292.2 ± 5.8 J/K/mol, the “molar heat capacity at constant pressure” value ([3]; 440.15 K, Crystal 1) was 298.2 ± 6 J/K/mol and the “molar heat capacity at constant pressure” value ([3]; 445.15 K, Crystal 1) was 301.3 ± 6 J/K/mol. For the same compound, the “molar heat capacity at constant pressure” value ([3]; 450.15 K, Crystal 1) was 308.5 ± 6.2 J/K/mol, the “molar heat capacity at constant pressure” value ([3]; 455.15 K, Crystal 1) was 310.9 ± 6.2 J/K/mol and the “molar heat capacity at constant pressure” value ([3]; 460.15 K, Crystal 1) was 314.8 ± 6.3 J/K/mol. For the same compound, the “molar heat capacity at constant pressure” value ([3]; 463.15 K, Crystal 1) was 316.2 ± 6.3 J/K/mol.
In the case of `CCCc1nc2ccccc2[nH]1` [1H-benzimidazole, 2-propyl-], the “vapor or sublimation pressure” value ([1]; 344.53 K) is reported as 4.28e-05 ± 2.2e-06 kPa, the “vapor or sublimation pressure” value ([1]; 352.14 K) is reported as 9.52e-05 ± 4.8e-06 kPa and the “vapor or sublimation pressure” value ([1]; 355.33 K) is reported as 0.000131 ± 7e-06 kPa. The “vapor or sublimation pressure” value ([1]; 362.01 K) was 0.000266 ± 1.3e-05 kPa, the “vapor or sublimation pressure” value ([1]; 364.33 K) was 0.000324 ± 1.6e-05 kPa and the Triple point temperature [1] was 385.8 ± 0.5 K. For the same compound, the “Molar enthalpy of transition or fusion” value [2] was 0.359 ± 0.0478 kcal/mol, the “molar heat capacity at constant pressure” value ([3]; 268.15 K, Crystal 2) was 190.5 ± 3.8 J/K/mol and the “molar heat capacity at constant pressure” value ([3]; 270.15 K, Crystal 2) was 192.6 ± 3.9 J/K/mol. For the same compound, the “molar heat capacity at constant pressure” value ([3]; 275.15 K, Crystal 2) was 197.1 ± 3.9 J/K/mol, the “molar heat capacity at constant pressure” value ([3]; 280.15 K, Crystal 2) was 201.5 ± 4 J/K/mol and the “molar heat capacity at constant pressure” value ([3]; 285.15 K, Crystal 2) was 206.1 ± 4.1 J/K/mol. The “molar heat capacity at constant pressure” value ([3]; 290.15 K, Crystal 2) was 210.1 ± 4.2 J/K/mol, the “molar heat capacity at constant pressure” value ([3]; 295.15 K, Crystal 2) was 214.4 ± 4.3 J/K/mol and the “molar heat capacity at constant pressure” value ([3]; 298.15 K, Crystal 2) was 217.1 ± 4.3 J/K/mol. The “molar heat capacity at constant pressure” value ([3]; 300.15 K, Crystal 2) was 218.7 ± 4.4 J/K/mol, the “molar heat capacity at constant pressure” value ([3]; 305.15 K, Crystal 2) was 223.2 ± 4.5 J/K/mol and the “molar heat capacity at constant pressure” value ([3]; 310.15 K, Crystal 2) was 228.3 ± 4.6 J/K/mol. The “molar heat capacity at constant pressure” value ([3]; 315.15 K, Crystal 2) was 234 ± 4.7 J/K/mol, the “molar heat capacity at constant pressure” value ([3]; 320.15 K, Crystal 2) was 239.7 ± 4.8 J/K/mol and the “molar heat capacity at constant pressure” value ([3]; 325.15 K, Crystal 2) was 245.7 ± 4.9 J/K/mol. The “molar heat capacity at constant pressure” value ([3]; 330.15 K, Crystal 2) was 252.2 ± 5 J/K/mol, the “molar heat capacity at constant pressure” value ([3]; 335.15 K, Crystal 2) was 258.6 ± 5.2 J/K/mol and the “molar heat capacity at constant pressure” value ([3]; 340.15 K, Crystal 2) was 263.7 ± 5.3 J/K/mol. For the same compound, the “molar heat capacity at constant pressure” value ([3]; 345.15 K, Crystal 2) was 268.3 ± 5.4 J/K/mol, the “molar heat capacity at constant pressure” value ([3]; 350.15 K, Crystal 2) was 274.9 ± 5.5 J/K/mol and the “molar heat capacity at constant pressure” value ([3]; 355.15 K, Crystal 2) was 282.4 ± 5.7 J/K/mol. The “molar heat capacity at constant pressure” value ([3]; 360.15 K, Crystal 2) was 292.6 ± 5.8 J/K/mol, the “molar heat capacity at constant pressure” value ([3]; 365.15 K, Crystal 2) was 306.3 ± 6.1 J/K/mol and the “molar heat capacity at constant pressure” value ([3]; 400.15 K, Crystal 1) was 280.1 ± 5.6 J/K/mol. For the same compound, the “molar heat capacity at constant pressure” value ([3]; 405.15 K, Crystal 1) was 285.2 ± 5.7 J/K/mol, the “molar heat capacity at constant pressure” value ([3]; 410.15 K, Crystal 1) was 290.7 ± 5.8 J/K/mol and the “molar heat capacity at constant pressure” value ([3]; 415.15 K, Crystal 1) was 297.5 ± 6 J/K/mol. For the same compound, the “molar heat capacity at constant pressure” value ([3]; 420.15 K, Crystal 1) was 306.5 ± 6.1 J/K/mol.
